{"source": "patent US20220062240A1", "about": "“METHODS OF TREATING CANCER USING A CLK INHIBITOR” (BioSplice Therapeutics, Inc., priority 2018, published 2022)", "key": {"[1]": {"tested_on": "prostate cancer (5 cell lines)", "test": "CellTiter-Glo Viability Assay, prostate cancer", "assay_type": "cell-based", "conditions": "Homo sapiens"}, "[2]": {"biological_target": "T1, CLK2 (Homo sapiens, UniProt P49760)", "T1 construct": "purchased Thermo Fisher (Life Technologies), Z'-LYTE Kinase Assay Kits", "test": "CLK2 kinase activity assay (Z-lyte, Ser/Thr 6 peptide)", "assay_type": "biochemical", "conditions": "recombinant CLK2 kinase, ATP 60 μM; read-out: EC50", "experimental": "All reactions were performed in duplicate."}, "[3]": {"tested_on": "liver cancer (3 cell lines)", "test": "CellTiter-Glo Viability Assay, liver cancer", "assay_type": "cell-based", "conditions": "Homo sapiens, inhibition of cancer cell proliferation"}, "[4]": {"tested_on": "BT-549", "test": "CellTiter-Glo Viability Assay, breast cancer", "assay_type": "cell-based", "conditions": "Homo sapiens, 96 h; BT-549, breast cancer, four days; read-out: EC50"}, "[5]": {"tested_on": "T47D", "test": "CellTiter-Glo Viability Assay, breast cancer", "assay_type": "cell-based", "conditions": "Homo sapiens, 96 h, breast cancer, four days, read-out: EC50"}, "[6]": {"tested_on": "CAMA1", "test": "CellTiter-Glo Viability Assay, breast cancer", "assay_type": "cell-based", "conditions": "Homo sapiens, CAMA-1, 96 h; CAMA1, breast cancer, four days; read-out: EC50"}, "[7]": {"tested_on": "ZR-75-1", "test": "CellTiter-Glo Viability Assay, breast cancer", "assay_type": "cell-based", "conditions": "Homo sapiens, 96 h; ZR-75-1, breast cancer, four days; read-out: EC50"}, "[8]": {"tested_on": "DU4475", "test": "CellTiter-Glo Viability Assay, breast cancer", "assay_type": "cell-based", "conditions": "Homo sapiens, DU-4475, 96 h; DU4475, breast cancer, four days; read-out: EC50"}, "[9]": {"tested_on": "MDA-MB-231-Luc", "test": "CellTiter-Glo Viability Assay, breast cancer", "assay_type": "cell-based", "conditions": "Homo sapiens, 96 h; MDA-MB-231-Luc, breast cancer, four days; read-out: EC50"}, "[10]": {"tested_on": "MCF7", "test": "CellTiter-Glo Viability Assay, breast cancer", "assay_type": "cell-based", "conditions": "Homo sapiens, 96 h; MCF7, breast cancer, four days; read-out: EC50"}, "[11]": {"tested_on": "HCC1599", "test": "CellTiter-Glo Viability Assay, breast cancer", "assay_type": "cell-based", "conditions": "Homo sapiens, 96 h; HCC1599, breast cancer, four days; read-out: EC50"}, "[12]": {"tested_on": "ovarian cancer (4 cell lines)", "test": "CellTiter-Glo Viability Assay, ovarian cancer", "assay_type": "cell-based", "conditions": "Homo sapiens, inhibition of cancer cell proliferation"}, "[13]": {"tested_on": "lung cancer (4 cell lines)", "test": "CellTiter-Glo Viability Assay, lung cancer", "assay_type": "cell-based", "conditions": "Homo sapiens, inhibition of cancer cell proliferation"}, "[14]": {"tested_on": "colorectal cancer (6 cell lines)", "test": "CellTiter-Glo Viability Assay, colorectal cancer", "assay_type": "cell-based", "conditions": "Homo sapiens, inhibition of cancer cell proliferation"}, "[15]": {"biological_target": "CLK3 (Homo sapiens, UniProt P49761)", "sequence (P49761 whole entry)": "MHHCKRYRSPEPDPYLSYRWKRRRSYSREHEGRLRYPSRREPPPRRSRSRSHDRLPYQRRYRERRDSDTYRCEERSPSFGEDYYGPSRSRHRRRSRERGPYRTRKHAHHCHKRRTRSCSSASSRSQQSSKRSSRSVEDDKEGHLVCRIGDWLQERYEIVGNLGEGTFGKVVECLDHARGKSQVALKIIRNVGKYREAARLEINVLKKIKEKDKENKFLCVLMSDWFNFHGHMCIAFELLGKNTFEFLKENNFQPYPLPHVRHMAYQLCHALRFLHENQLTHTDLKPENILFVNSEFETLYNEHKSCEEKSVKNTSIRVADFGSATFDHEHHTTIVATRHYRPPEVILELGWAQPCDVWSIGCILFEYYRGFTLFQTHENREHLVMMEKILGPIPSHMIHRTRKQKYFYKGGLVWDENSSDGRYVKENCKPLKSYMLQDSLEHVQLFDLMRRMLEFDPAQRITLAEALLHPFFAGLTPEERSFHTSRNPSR", "test": "CLK3 kinase activity assay (Z-lyte, Ser/Thr 18 peptide)"}, "[16]": {"tested_on": "haematopoietic & lymphoid tumors (13 cell lines)", "test": "CellTiter-Glo Viability Assay, haematopoietic & lymphoid tumors", "assay_type": "cell-based", "conditions": "Homo sapiens, inhibition of cancer cell proliferation"}, "[17]": {"tested_on": "all 50 cell lines", "test": "CellTiter-Glo Viability Assay, average across all cell lines", "assay_type": "cell-based", "conditions": "Homo sapiens; across all 50 cell lines; read-out: average EC50 for inhibition of cancer cell proliferation", "in_short": "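4-day proliferation, 37° C/5% CO2; 300-3,000 cells/well; compound in duplicate vs DMSO controls. Panel: breast, colorectal, heme/lymphoid, liver, lung, ovarian, pancreatic, prostate lines. Read-out: CellTiter-Glo ATP luminescence, EC50 from dose-response.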"}, "[18]": {"tested_on": "pancreatic cancer (8 cell lines)", "test": "CellTiter-Glo Viability Assay, pancreatic cancer", "assay_type": "cell-based", "conditions": "Homo sapiens, inhibition of cancer cell proliferation"}}, "note": "Read-outs that look alike come from different tables or passages of the source."}
{"smiles": "O=C(Nc1c[nH]nc1-c1nc2c(-c3cccc(F)c3)cncc2[nH]1)c1cccnc1", "note": "[Compound 91]", "values": [{"measurement": "EC50", "setting": "[1]; DU-145, read-out: Prostate cancer EC50 Du-145", "value": 0.091, "unit": "µM"}, {"measurement": "EC50", "setting": "[1]; PC-3, PC3 cell line, inhibition of cancer cell proliferation, read-out: Prostate cancer EC50 PC3", "value": 0.031, "unit": "µM"}, {"measurement": "EC50", "setting": "[1]; 22Rv1 cell line, inhibition of cancer cell proliferation, read-out: Prostate cancer EC50 22Rv1", "value": 0.021, "unit": "µM"}, {"measurement": "EC50", "setting": "[1]; LNCap clone FGC cell line, inhibition of cancer cell proliferation, read-out: Prostate cancer EC50 LNCap clone FGC", "value": 0.05, "unit": "µM"}, {"measurement": "EC50", "setting": "[1]; VCaP (Sigma) cell line, inhibition of cancer cell proliferation, read-out: Prostate cancer EC50 VCaP (Sigma)", "value": 0.009, "unit": "µM"}, {"measurement": "EC50", "setting": "[2]", "value": 0.0031, "unit": "µM"}, {"measurement": "EC50", "setting": "[3]; SNU-398, SNU398 cell line, read-out: Liver cancer, EC50 SNU398", "value": 0.038, "unit": "µM"}, {"measurement": "EC50", "setting": "[3]; HEPG2 cell line, read-out: Liver cancer, EC50 HEPG2", "value": 0.375, "unit": "µM"}, {"measurement": "EC50", "setting": "[3]; PLC/PRF/5 cell line, read-out: Liver cancer, EC50 PLC/PRF/5", "value": 0.444, "unit": "µM"}, {"measurement": "EC50", "setting": "[4]", "value": 0.024, "unit": "µM"}, {"measurement": "EC50", "setting": "[5]", "value": 0.402, "unit": "µM"}, {"measurement": "EC50", "setting": "[6]", "value": 0.088, "unit": "µM"}, {"measurement": "EC50", "setting": "[7]", "value": 0.113, "unit": "µM"}, {"measurement": "EC50", "setting": "[8]", "value": 0.046, "unit": "µM"}, {"measurement": "EC50", "setting": "[9]", "value": 0.118, "unit": "µM"}, {"measurement": "EC50", "setting": "[10]", "value": 0.336, "unit": "µM"}, {"measurement": "EC50", "setting": "[11]", "value": 0.008, "unit": "µM"}, {"measurement": "EC50", "setting": "[12]; PA-1, PA1 cell line, read-out: Ovarian cancer, EC50 (μM) PA1", "value": 0.057, "unit": "µM"}, {"measurement": "EC50", "setting": "[12]; TOV112D, TOV-112D cell line, read-out: Ovarian cancer, EC50 (μM) TOV-112D", "value": 0.102, "unit": "µM"}, {"measurement": "EC50", "setting": "[12]; OV-90 cell line, read-out: Ovarian cancer, EC50 (μM) OV-90", "value": 0.255, "unit": "µM"}, {"measurement": "EC50", "setting": "[12]; OVCAR-3 cell line, read-out: Ovarian cancer, EC50 (μM) OVCAR-3", "value": 0.025, "unit": "µM"}, {"measurement": "EC50", "setting": "[13]; A-427, A427 cell line, read-out: Lung cancer, EC50 (μM) A427", "value": 0.064, "unit": "µM"}, {"measurement": "EC50", "setting": "[13]; HCC78, HCC-78 cell line, read-out: Lung cancer, EC50 (μM) HCC-78", "value": 0.1, "unit": "µM"}, {"measurement": "EC50", "setting": "[13]; NCI-H460 cell line, read-out: Lung cancer, EC50 (μM) NCI-H460", "value": 0.476, "unit": "µM"}, {"measurement": "EC50", "setting": "[13]; NCI-H522 cell line, read-out: Lung cancer, EC50 (μM) NCI-H522", "value": 0.06, "unit": "µM"}, {"measurement": "EC50", "setting": "[14]; HCT-116, HCT116 cell line, read-out: Colorectal cancer, EC50 (μM) HCT116", "value": 0.05, "unit": "µM"}, {"measurement": "EC50", "setting": "[14]; HT-29, HT29 cell line, read-out: Colorectal cancer, EC50 (μM) HT29", "value": 0.211, "unit": "µM"}, {"measurement": "EC50", "setting": "[14]; SW-620, SW620 cell line, read-out: Colorectal cancer, EC50 (μM) SW620", "value": 0.044, "unit": "µM"}, {"measurement": "EC50", "setting": "[14]; DLD-1 cell line, read-out: Colorectal cancer, EC50 (μM) DLD-1", "value": 0.095, "unit": "µM"}, {"measurement": "EC50", "setting": "[14]; SW48 cell line, read-out: Colorectal cancer, EC50 (μM) SW48", "value": 0.082, "unit": "µM"}, {"measurement": "EC50", "setting": "[14]; SW480 cell line, read-out: Colorectal cancer, EC50 (μM) SW480", "value": 0.078, "unit": "µM"}, {"measurement": "EC50", "setting": "[15]", "value": 0.0225, "unit": "µM"}, {"measurement": "EC50", "setting": "[16]; DND41, DND-41 cell line, read-out: Haematopoietic & Lymphoid tumors, EC50 (μM) DND-41", "value": 0.014, "unit": "µM"}, {"measurement": "EC50", "setting": "[16]; MV4-11, MV-4-11 cell line, read-out: Haematopoietic & Lymphoid tumors, EC50 (μM) MV-4-11", "value": 0.007, "unit": "µM"}, {"measurement": "EC50", "setting": "[16]; Rec1, REC-1 cell line, read-out: Haematopoietic & Lymphoid tumors, EC50 (μM) REC-1", "value": 0.024, "unit": "µM"}, {"measurement": "EC50", "setting": "[16]; SU-DHL-4, SUDHL4 cell line, read-out: Haematopoietic & Lymphoid tumors, EC50 (μM) SUDHL4", "value": 0.009, "unit": "µM"}, {"measurement": "EC50", "setting": "[16]; HL-60 cell line, read-out: Haematopoietic & Lymphoid tumors, EC50 (μM) HL-60", "value": 0.034, "unit": "µM"}, {"measurement": "EC50", "setting": "[16]; JM1 cell line, read-out: Haematopoietic & Lymphoid tumors, EC50 (μM) JM1", "value": 0.01, "unit": "µM"}, {"measurement": "EC50", "setting": "[16]; JURKAT, Clone E6-1 cell line, read-out: Haematopoietic & Lymphoid tumors, EC50 (μM) JURKAT, Clone E6-1", "value": 0.031, "unit": "µM"}, {"measurement": "EC50", "setting": "[16]; JeKo-1 cell line, read-out: Haematopoietic & Lymphoid tumors, EC50 (μM) JeKo-1", "value": 0.008, "unit": "µM"}, {"measurement": "EC50", "setting": "[16]; KASUMI-1 cell line, read-out: Haematopoietic & Lymphoid tumors, EC50 (μM) KASUMI-1", "value": 0.01, "unit": "µM"}, {"measurement": "EC50", "setting": "[16]; Loucy cell line, read-out: Haematopoietic & Lymphoid tumors, EC50 (μM) Loucy", "value": 0.013, "unit": "µM"}, {"measurement": "EC50", "setting": "[16]; MOLT-4 cell line, read-out: Haematopoietic & Lymphoid tumors, EC50 (μM) MOLT-4", "value": 0.045, "unit": "µM"}, {"measurement": "EC50", "setting": "[16]; TF-1 cell line, read-out: Haematopoietic & Lymphoid tumors, EC50 (μM) TF-1", "value": 0.008, "unit": "µM"}, {"measurement": "EC50", "setting": "[16]; TOLEDO cell line, read-out: Haematopoietic & Lymphoid tumors, EC50 (μM) TOLEDO", "value": 0.019, "unit": "µM"}, {"measurement": "EC50", "setting": "[17]", "value": 0.099, "unit": "µM"}, {"measurement": "EC50", "setting": "[18]; BXPC-3, BxPC3 cell line, read-out: Pancreatic cancer, EC50 BxPC3", "value": 0.022, "unit": "µM"}, {"measurement": "EC50", "setting": "[18]; CAPAN-1, Capan1 cell line, read-out: Pancreatic cancer, EC50 Capan1", "value": 0.103, "unit": "µM"}, {"measurement": "EC50", "setting": "[18]; Capan-2, Capan2 cell line, read-out: Pancreatic cancer, EC50 Capan2", "value": 0.074, "unit": "µM"}, {"measurement": "EC50", "setting": "[18]; MIA PaCa-2 cell line, read-out: Pancreatic cancer, EC50 MIA PaCa-2", "value": 0.04, "unit": "µM"}, {"measurement": "EC50", "setting": "[18]; PANC 05.04 cell line, read-out: Pancreatic cancer, EC50 PANC 05.04", "value": 0.06, "unit": "µM"}, {"measurement": "EC50", "setting": "[18]; PANC-1 cell line, read-out: Pancreatic cancer, EC50 PANC-1", "value": 0.413, "unit": "µM"}, {"measurement": "EC50", "setting": "[18]; UPAFII cell line, read-out: Pancreatic cancer, EC50 UPAFII", "value": 0.136, "unit": "µM"}]}
